Like-named read-outs stand apart in the source and are kept apart here.
What was measured:
[1] = system: Adult S. mansoni; assay: In vitro antischistosomal activity on adult worms; format: cell-based, Schistosoma mansoni; details: for Mean (±SD) survival time – Adult S. mansoni / Time for the death of 100% worms: 100 µg/mL; for Mean (±SD) survival time – Adult S. mansoni: observation up to 8 h (Table S1)
Text: The NMRI strain of Schistosoma mansoni was used for the experimentations. The parasite was maintained on an albino variety of Biomphalaria glabrata from Brazil (intermediate host) and in Golden Hamsters, Mesocricetus auratus (Janvier Labs, Le Genest-Saint-Isle, France). Detailed methods, for mollusk and hamster infections and for parasite recovery, were previously described.
Adult worms were recovered between 42 and 47 days after infection by hepatic perfusion technique. Twenty to fifty adult worms were disposed in 12-well Falcon® plate containing 2 mL of RPMI 1640 (supplemented with L-glutamine and Hepes 25 mM) and stored in an incubator chamber (37 °C; 5% CO2). Drug preparation started with dissolution of the drug in DMSO to give a 100 mg/mL stock solution. The dilution was complemented with Tween 80 and RPMI in order to obtain the following final ratio dilution: RPMI 1640/Tween 80/DMSO, 1000/0.95/3.8, v/v/v. The drug solution was added to Falcon plates that contained adult worms. The S. mansoni cultures were then incubated with each drug at a final concentration of 100 µg/mL. Positive control was carried out with a solution of praziquantel (Merck KGaA, Darmstadt, Germany) at a concentration of 100 µg/mL. Negative control was carried out with the same RPMI 1640/Tween 80/DMSO solution, but without any drug. Each test was performed in duplicate. Every hour, moving worms were counted in order to define the percentage of survivors. Parasites showing no body contractions during a 30 s observation were considered as dead. Observations were extended to 8 h. Mean survival times (± standard deviation) were calculated for each drug using Kaplan–Meier survival analyses.

[2] = system: P. falciparum chloroquine-resistant strain FcB1-Columbia; assay: Antiplasmodial screen at 10 µM and chemosensitivity assay (SYBR Green I), FcB1-Columbia; format: cell-based, Plasmodium falciparum
[3] = Homolysis of the NO–C bond measured by EPR
Protocol: Homolysis rate constants kd’ were measured by EPR and estimated using Equation (1) as reported many times in the literature. Further, Ea and kd were estimated using Equation (2). (1) ln([nitroxide]∞−[nitroxide]t/[nitroxide]∞)=−kd·t (2) Ea=−RT ln([…] kd′ )

[4] = adult S. mansoni, observation up to 8 h
[5] = FcB1-Columbia strain, read-out: IC50 on P. falciparum

Structure (SMILES)	Mean (±SD) survival time – Adult S. mansoni [1]	Time for the death of 100% worms [1, 4]	IC50 [2, 5]	further results
CCOP(=O)(OCC)C(N(OC(CO)c1ccccc1)C(C)(C)C)C(C)(C)C (centres unmarked) [(RS/SR)-1C]	1.4 ± 0.2 h	2 h	> 10 µM	
CCOP(=O)(OCC)C(N(OC(CN)c1ccccn1)C(C)(C)C)C(C)(C)C (centres unmarked) [(RR/SS)-1g]	1.9 ± 0.1 h	2 h	> 10 µM	
CCOP(=O)(OCC)C(N(OC(C)n1ccnc1)C(C)(C)C)C(C)(C)C (centres unmarked) [(RR/SS)-1o]	2.3 ± 0.2 h	3 h	25 µM	
CCOP(=O)(OCC)C(N(OC(COC)c1ccccc1)C(C)(C)C)C(C)(C)C (centres unmarked) [(RS/SR)-1D]	3.8 ± 0.5 h	6 h	> 10 µM	
CCOP(=O)(OCC)C(N(OC(C)c1ccc(C(=O)OC)cc1)C(C)(C)C)C(C)(C)C (centres unmarked) [(RR/SS)-1x]	> 8 h	> 8 h	> 10 µM	
CCOP(=O)(OCC)C(N(OC(CN)c1cc[n+]([O-])cc1)C(C)(C)C)C(C)(C)C (centres unmarked) [(RS/SR)-1e]	> 8 h	> 8 h	> 10 µM	
CCOP(=O)(OCC)C(N(OC(C)c1ccc([N+](=O)[O-])cc1)C(C)(C)C)C(C)(C)C (centres unmarked) [(RR/SS)-1v]	3.4 ± 0.2 h	4 h	> 10 µM	
CCOP(=O)(OCC)C(N(OC(C)c1ccc(N)cc1)C(C)(C)C)C(C)(C)C (centres unmarked) [(RS/SR)-1w]	> 8 h	> 8 h	> 10 µM	
CCOP(=O)(OCC)C(N(OC(C)c1ccc(C(=O)OC)cc1)C(C)(C)C)C(C)(C)C (centres unmarked) [(RS/SR)-1x]	2.4 ± 0.3 h	4 h	> 10 µM	
CCOP(=O)(OCC)C(N(OC(CNC(=O)C(F)(F)F)c1ccccc1)C(C)(C)C)C(C)(C)C (centres unmarked) [(RR/SS)-1E]	5.0 ± 0.5 h	6 h	> 10 µM	
CCOP(=O)(OCC)C(N(OC(C)c1ccc(N)cc1)C(C)(C)C)C(C)(C)C (centres unmarked) [(RR/SS)-1w]	2.1 ± 0.1 h	3 h	> 10 µM	
CCOP(=O)(OCC)C(N(OC(C)c1cc(-c2ccccn2)nc(-c2ccccn2)c1)C(C)(C)C)C(C)(C)C (centres unmarked) [1F]			> 10 µM	
CCOP(=O)(OCC)C(N(OC(CN)c1ccccn1)C(C)(C)C)C(C)(C)C (centres unmarked) [(RS/SR)-1g]	2.6 ± 0.3 h	4 h	> 10 µM	
CCOP(=O)(OCC)[C@@H](N(O[C@@H](COC(C)=O)c1ccccn1)C(C)(C)C)C(C)(C)C (relative stereo) [(RR/SS)-1j]	> 8 h	> 8 h	> 10 µM	
CCOP(=O)(OCC)C(N(OC(CO)c1ccccn1)C(C)(C)C)C(C)(C)C (centres unmarked) [(RS/SR)-1i]	> 8 h	> 8 h	> 10 µM	
CCOP(=O)(OCC)C(N(OC(C)c1c[nH]cn1)C(C)(C)C)C(C)(C)C (centres unmarked) [(RS/SR)-1p]	1.4 ± 0.3 h	3 h	20.5 µM	
CCOP(=O)(OCC)C(N(OC(C)c1cc(-c2ccccc2)cc(-c2ccccc2)c1)C(C)(C)CO)C(C)(C)C (centres unmarked) [(RR/SS)-2G, Diethyl(1-((1-([1,1′:3′,1′′-terphenyl]-5′-yl)ethoxy)(1-hydroxy-2-methylpropan-2-yl)amino)-2,2-dimethylpropyl)phosphonate]		7 h		IC50 ([2]; Plasmodium falciparum, FCB1, read-out: IC50 on P. falciparum, FcB1-Columbia strain): > 10 µM; activation energy Ea ([3]; MeOH/water 2:1 pH = 7.0): 28.94 kcal/mol; re-estimated homolysis rate constant kd at 120 °C ([3]; MeOH/water 2:1 pH = 7.0): 19.5 10^−3 s^−1; homolysis rate constant kd′ ([3]; MeOH/water 2:1 pH = 7.0, 81 °C): 3.3 10^−4s^−1; half-life ([3]; buffer, pH 7, half-lifetime t1/2 at 37 °C, MeOH/water 2:1 pH = 7.0): 295 h; half-life ([3]; half-lifetime t1/2 at 37 °C, t-BuPh): 180 h; activation energy Ea ([3]; t-BuPh): 28.87 kcal/mol; re-estimated homolysis rate constant kd at 120 °C ([3]; t-BuPh): 21.1 10^−3 s^−1; homolysis rate constant kd′ ([3]; t-BuPh, 81 °C): 3.8 10^−4s^−1
CCOP(=O)(OCC)C(N(OC(C)c1ccc(C(=O)O)cc1)C(C)(C)C)C(C)(C)C (centres unmarked) [(RR/SS)-1y]	> 8 h	> 8 h	> 10 µM	
CCOP(=O)(OCC)C(N(OC(C)c1cccnc1)C(C)(C)C)C(C)(C)C (centres unmarked) [(RR/SS)-1b]			22.5 µM	
CCOP(=O)(OCC)C(N(OC(C)c1cc[n+]([O-])cc1)C(C)(C)C)C(C)(C)C (centres unmarked) [(RR/SS)-1d]	> 8 h	> 8 h	> 10 µM	
CCOP(=O)(OCC)C(N(OC(C)c1ccccc1)C(C)(C)CO)C(C)(C)C (centres unmarked) [(RS/SR)-2z]	> 8 h	> 8 h	> 10 µM	
CCOP(=O)(OCC)C(N(OC(C)c1ncc[nH]1)C(C)(C)C)C(C)(C)C (centres unmarked) [(RS/SR)-1k]	> 8 h	> 8 h	> 10 µM	
CCOP(=O)(OCC)C(N(OC(C)c1ccc([N+](=O)[O-])cc1)C(C)(C)C)C(C)(C)C (centres unmarked) [(RS/SR)-1v]	> 8 h	> 8 h	> 10 µM	
CCOP(=O)(OCC)C(N(OC(C)c1ncc[nH]1)C(C)(C)C)C(C)(C)C (centres unmarked) [(RR/SS)-1k]	1.0 ± 0.05 h	1 h	> 10 µM	S. mansoni Mean Survival Time ([1]; adult S. mansoni, single dose 100 µg/mL, observation up to 8 h): 1.0 ± 0.05 h
CCOP(=O)(OCC)C(N(OC(C)n1ccnc1)C(C)(C)C)C(C)(C)C (centres unmarked) [(RS/SR)-1o]	1.1 ± 0.1 h	2 h	25 µM	
CCOP(=O)(OCC)C(N(OC(CNC(=O)C(F)(F)F)c1ccccn1)C(C)(C)C)C(C)(C)C (centres unmarked) [(RS/SR)-1h]	> 8 h	> 8 h	> 10 µM	
CCOP(=O)(OCC)[C@@H](N(O[C@H](COC(C)=O)c1ccccn1)C(C)(C)C)C(C)(C)C (relative stereo) [(RS/SR)-1j]	> 8 h	> 8 h	> 10 µM	
CCOP(=O)(OCC)C(N(OC(CN)c1ccncc1)C(C)(C)C)C(C)(C)C (centres unmarked) [(RS/SR)-1f]			> 10 µM	

From PMC7503767, “Alkoxyamines Designed as Potential Drugs against Plasmodium and Schistosoma Parasites” (Molecules, 2020)
